# Target: T1, recombinant human Itk kinase domain fused with GST (Homo sapiens, UniProt Q08881)
# T1 construct: recombinant human Itk kinase domain fused with GST; GST (Glutathione S-Transferase); made in house; host or cells: High five insect cells
# T1 sequence (Q08881 363-615 limits assumed): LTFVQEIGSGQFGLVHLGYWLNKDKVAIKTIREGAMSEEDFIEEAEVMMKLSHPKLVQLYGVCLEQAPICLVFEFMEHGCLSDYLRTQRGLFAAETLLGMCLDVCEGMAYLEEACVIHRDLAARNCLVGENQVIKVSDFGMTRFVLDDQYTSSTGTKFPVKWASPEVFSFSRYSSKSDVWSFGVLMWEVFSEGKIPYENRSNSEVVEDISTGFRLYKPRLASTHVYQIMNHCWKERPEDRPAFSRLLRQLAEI
# Test: Itk LANCE TRF Assay
# Format: biochemical
# Details: 50 μM ATP, 2 μM peptide substrate, 50 minutes RT; read-out: Inhibition of Kinase Itk (IC50 μM)
# Description: The Itk kinase assay utilized recombinant human Itk kinase domain fused with GST (Glutathione S-Transferase). The protein was expressed in High five insect cells, purified in one step on an affinity chromatography glutathione column and stored in 50 mM Tris/HCl (pH 7.6), 150 mM NaCl, 5% (w/v) mannitol, 1 mM DTT, 30% glycerol at −70° C. The kinase substrate used in the assay was a biotinylated peptide derived from the Src-optimal substrate (Nair et al, J. Med. Chem., 38: 4276, 1995; biotin-AEEEIYGEFEAKKKK).
# The assay additions were as follows: Test compounds (or controls; 1 μL in 100% DMSO) were added to black 96-well flat-bottomed plates (Greiner 655076) followed by 20 μL Itk in assay buffer and the reaction was started by adding 20 μL ATP and peptide substrate in assay buffer. The assay buffer constitution during phosphorylation was: 50 mM HEPES (pH 6.8), 10 mM MgCl2, 0.015% Brij 35, 1 mM DTT, 10% glycerol, 160 ng/well Itk, 2 μM peptide substrate and 50 μM ATP. The assay was stopped after 50 minutes (RT) by adding 150 μL ice-cold Stop solution (50 mM Tris/HCl, pH 7.5, 10 mM EDTA, 0.9% NaCl and 0.1% BSA) together with LANCE reagents (2 nM PT66-Eu^3+, Wallac AD0069 and 5 μg/ml Streptavidin-APC, Wallac AD0059. Both concentrations were final in stopped assay solution). The plates were measured on a Wallac 1420 Victor 2 instrument with TRF settings after 1 h incubation, and the ratio (665 signal/615 signal)*10000 was used to calculate the inhibition values. IC50 values were determined using XLfit.
row,IC50 [µM],Structure (SMILES)
1,0.94,"O=C(NCCCN1CCOCC1)c1ccc2nc(-c3ccc(Cl)cc3O)sc2c1 [Example 6, 2-(4-Chloro-2-hydroxyphenyl)-N-(3-morpholin-4-ylpropyl)-1,3-benzothiazole-6-carboxamide]"
2,1.47,"Oc1ccc(Cl)cc1-c1nc2ccc(CN3CCCC3)cc2s1 [Example 34, 4-Chloro-2-[6-(pyrrolidin-1-ylmethyl)-1,3-benzothiazol-2-yl]phenol]"
3,3.04,"OCc1ccc2nc(-c3ccccc3O)sc2c1 [Example 44, 2-[6-(Hydroxymethyl)-1,3-benzothiazol-2-yl]phenol]"
